# Data from ChEMBL document CHEMBL3400084, “Synthesis and evaluation of tetrahydroindazole derivatives as sigma-2 receptor ligands” (Bioorg Med Chem, 2015).
# How the values were obtained:
# [1] = molecular target: Sigma non-opioid intracellular receptor 1 (Cavia porcellus, UniProt Q60492); test: Displacement of (+)-[3H]pentazocine from sigma 1 receptor in guinea pig brain homogenate after 120 mins by beta counting; format: tissue-based
# [2] = Displacement of [3H]-di-o-tolylguanidine from sigma 2 receptor in Sprague-Dawley rat liver membranes after 120 mins by beta counting in presence of (+)-pentazocine; format: cell membranes, Membrane
# [3] = Selectivity ratio of Ki for sigma 1 receptor in guinea pig brain homogenate to Ki for sigma 2 receptor in Sprague-Dawley rat liver membranes; format: cell membranes
# Sigma non-opioid intracellular receptor 1, sequence (Q60492 whole entry): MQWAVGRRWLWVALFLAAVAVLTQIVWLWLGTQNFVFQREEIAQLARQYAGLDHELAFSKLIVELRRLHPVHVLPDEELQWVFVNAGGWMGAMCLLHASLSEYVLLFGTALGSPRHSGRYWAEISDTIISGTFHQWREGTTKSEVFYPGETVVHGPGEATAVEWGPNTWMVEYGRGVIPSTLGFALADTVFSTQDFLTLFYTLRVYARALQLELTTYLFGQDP
Ki [1],Ki [2],Ratio Ki [3],SMILES
> 1000 nM,820 nM,–,COc1cc2c(cc1OC)CN(CCNc1cc(-n3nc(C)c4c3CC(C)(C)CC4=O)ccc1C(N)=O)CC2
> 1000 nM,74.5 nM,> 13,COc1cc2c(cc1OC)CN(CCCCCNc1cc(-n3nc(C)c4c3CC(C)(C)CC4=O)ccc1C(N)=O)CC2
> 1000 nM,21500 nM,–,COc1cc2c(cc1OC)CN(CCCCCCNc1cc(-n3nc(C)c4c3CC(C)(C)CC4=O)ccc1C(N)=O)CC2
> 1000 nM,89.8 nM,> 11,COc1cc2c(cc1OC)CN(CCCNc1cc(-n3nc(C)c4c3CC(C)(C)CC4=O)ccc1C(N)=O)CC2
> 1000 nM,46.6 nM,> 21,Cc1nn(-c2ccc(C(N)=O)c(NC3CC4CCCC(C3)N4)c2)c2c1C(=O)CC(C)(C)C2 (centres undefined)
> 1000 nM,142 nM,> 7,COc1cc2c(cc1OC)CN(CCCCNc1cc(-n3nc(C)c4c3CC(C)(C)CC4=O)ccc1C(N)=O)CC2
> 1000 nM,18400 nM,–,COc1cc2c(cc1OC)CN(c1cc(-n3nc(C)c4c3CC(C)(C)CC4=O)ccc1C(N)=O)CC2
–,19.4 nM,–,Cc1ccccc1NC(=N)Nc1ccccc1C [DITOLYLGUANIDINE]
